Experimental data: paper PMC5609037, “Selective inhibition of PfA-M1, over PfA-M17, by an amino-benzosuberone derivative blocks malaria parasites development in vitro and in vivo” (Malaria Journal, 2017)

What was measured:
[1] = molecular target: T1, PfA-M17 (P. falciparum leucyl aminopeptidase) (Plasmodium falciparum, UniProt Q8IL11); test: Leu-pNA hydrolysis at […] nm, Ki by Dixon plots; type: biochemical
T1 construct: gene LAP; residues 84–605, N-terminal hexahistidine tag, recombinant from E. coli
T1 sequence (Q8IL11 84-605): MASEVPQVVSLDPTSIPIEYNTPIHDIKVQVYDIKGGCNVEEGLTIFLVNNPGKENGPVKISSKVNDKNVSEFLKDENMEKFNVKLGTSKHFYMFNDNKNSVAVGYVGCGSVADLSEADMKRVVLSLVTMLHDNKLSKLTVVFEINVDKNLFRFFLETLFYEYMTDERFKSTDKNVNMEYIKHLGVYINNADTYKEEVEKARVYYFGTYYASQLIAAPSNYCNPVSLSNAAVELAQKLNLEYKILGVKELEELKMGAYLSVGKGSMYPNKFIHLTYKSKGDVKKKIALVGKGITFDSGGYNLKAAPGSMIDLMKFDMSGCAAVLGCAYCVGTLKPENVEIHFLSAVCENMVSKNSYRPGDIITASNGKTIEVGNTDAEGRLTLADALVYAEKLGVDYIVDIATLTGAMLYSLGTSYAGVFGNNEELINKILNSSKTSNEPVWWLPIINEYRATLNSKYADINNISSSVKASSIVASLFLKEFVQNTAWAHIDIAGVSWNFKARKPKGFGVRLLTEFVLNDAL

[2] = molecular target: T2, PfA-M1 (P. falciparum alanyl aminopeptidase, M1 family aminopeptidase) (Plasmodium falciparum, UniProt O96935); test: Ala-pNA hydrolysis at […] nm, Ki by Dixon plots; type: biochemical
T2 construct: gene M1AAP; residues 192–1085, N-terminal hexahistidine tag, recombinant from E. coli
T2 sequence (O96935 192-1085): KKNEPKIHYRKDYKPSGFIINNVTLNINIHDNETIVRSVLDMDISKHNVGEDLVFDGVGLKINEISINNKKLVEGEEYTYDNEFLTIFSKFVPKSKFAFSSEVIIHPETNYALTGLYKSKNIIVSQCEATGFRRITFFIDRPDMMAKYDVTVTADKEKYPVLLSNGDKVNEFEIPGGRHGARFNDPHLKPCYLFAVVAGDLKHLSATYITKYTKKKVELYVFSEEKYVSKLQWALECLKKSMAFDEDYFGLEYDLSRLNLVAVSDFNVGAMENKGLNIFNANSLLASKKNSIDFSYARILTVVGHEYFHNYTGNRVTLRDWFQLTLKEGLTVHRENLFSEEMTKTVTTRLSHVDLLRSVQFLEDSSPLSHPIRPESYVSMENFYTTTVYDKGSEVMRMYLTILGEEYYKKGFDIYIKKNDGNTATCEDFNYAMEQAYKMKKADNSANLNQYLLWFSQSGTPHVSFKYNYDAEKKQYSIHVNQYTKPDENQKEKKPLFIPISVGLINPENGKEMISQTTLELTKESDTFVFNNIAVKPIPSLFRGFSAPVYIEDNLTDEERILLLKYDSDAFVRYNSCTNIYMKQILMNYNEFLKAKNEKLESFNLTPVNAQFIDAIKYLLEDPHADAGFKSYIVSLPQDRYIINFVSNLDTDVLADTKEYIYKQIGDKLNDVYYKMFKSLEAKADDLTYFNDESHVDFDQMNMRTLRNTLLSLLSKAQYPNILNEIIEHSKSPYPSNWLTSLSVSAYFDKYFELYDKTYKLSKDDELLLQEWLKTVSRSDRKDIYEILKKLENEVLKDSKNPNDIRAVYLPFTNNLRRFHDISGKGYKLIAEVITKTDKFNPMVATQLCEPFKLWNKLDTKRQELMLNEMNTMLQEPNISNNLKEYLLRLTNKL

## CC(C)C[C@H](NC(=O)[C@@H](O)[C@H](N)Cc1ccccc1)C(=O)O [bestatin]
[1]
  Ki: 400 nM
[2]
  Ki: 100 nM
